According to publication PMC10728895, “Stapled Phd Peptides Inhibit Doc Toxin Induced Growth Arrest in Salmonella” (ACS Chemical Biology, 2023):
Positions of bridges follow the written chain, without caps; N, C: chain ends. Non-standard residues stand in square brackets, D forms with d. Residues, ends and D or L forms follow the SMILES beside them. S5 = C=CCCC[C@](C)(N)C(=O)O; Nle = CCCC[C@H](N)C(=O)O

What follows are compounds tested on DocSTm toxin. Conditions: DocSTm 5 μM, peptide 50 μM, pH 8.0; average ± SD, replicates 3-48 (Table S3).
Protocol: The thermal shift assay was performed using a Mx3005P qPCR System (Agilent) collecting fluorescence data with a temperature ramp of 25 to 95 °C. Samples were prepared in a buffer containing 20 mM K2HPO4 and 50 mM (NH4)2SO4 at pH 8.0, with a final concentration of recombinant Doc protein at 5 μM and Phd peptides at 50 μM. SYPRO Orange dye (Sigma-Aldrich, 5000X stock in DMSO) was used to monitor protein denaturation in a final concentration of 3×. The final sample volume was 20 μL. Each condition was prepared in triplicate in each independent experiment. The melting curves were plotted using GraphPad Prism 9 (GraphPad Software, USA), and the melting temperatures were obtained by fitting the sigmoidal section of the curves to a Boltzmann sigmoid function. For the calculation of thermal shifts ΔTm, the average melting temperature of free DocSTm toxin as determined in the respective peptide measurement cycles was subtracted from the average melting temperature of DocSTm in the presence of the peptide (Table S3).
With `CCCC[C@H](NC(=O)[C@H](Cc1c[nH]c2ccccc12)NC(C)=O)C(=O)N[C@@H](CC(=O)O)C(=O)N[C@@H](CC(=O)O)C(=O)N[C@@H](CCC(=O)O)C(=O)N[C@@H](Cc1ccccc1)C(=O)N[C@@H](C)C(=O)N[C@@H](C)C(=O)N[C@H](C(=O)N[C@@H](CCCC)C(=O)N[C@@H](C)C(=O)N[C@H](C(=O)N[C@@H](Cc1c[nH]cn1)C(=O)NCC(=O)N[C@@H](CC(N)=O)C(=O)N[C@@H](CCC(=O)O)C(=O)N[C@@H](CC(C)C)C(=O)N[C@@H](CCCNC(=N)N)C(=O)N[C@@H](CCC(=O)O)C(=O)N[C@@H](CC(C)C)C(=O)N[C@@H](CCCNC(=N)N)C(=O)N[C@@H](CC(=O)O)C(=O)N[C@@H](CCCCN)C(=O)O)C(C)C)[C@@H](C)CC` [Peptide 12] (Ac-W[Nle]DDEFAAI[Nle]AVHGNELRELRDK-OH) the “Average Tm of DocSTm in the presence of peptide” value (shortened to “Average Tm of DocSTm”) was 68.3 ± 0.9 °C. In the case of `CCCC[C@H](NC(=O)[C@H](Cc1c[nH]c2ccccc12)NC(C)=O)C(=O)N[C@@H](CCCNC(=N)N)C(=O)N[C@@H](CC(N)=O)C(=O)N[C@@H](CCC(=O)O)C(=O)N[C@@H](Cc1ccccc1)C(=O)N[C@@H](CCCNC(=N)N)C(=O)N[C@@H](C)C(=O)N[C@H](C(=O)N[C@@H](CCCC)C(=O)N[C@@H](CCCNC(=N)N)C(=O)N[C@H](C(=O)N[C@@H](Cc1c[nH]cn1)C(=O)NCC(=O)N[C@@H](CC(N)=O)C(=O)N[C@@H](CCC(N)=O)C(=O)N[C@@H](CC(C)C)C(=O)N[C@@H](CCCNC(=N)N)C(=O)N[C@@H](CCC(=O)O)C(=O)N[C@@H](CC(C)C)C(=O)N[C@@H](C)C(=O)N[C@@H](CC(N)=O)C(=O)N[C@@H](CCCCN)C(=O)O)C(C)C)[C@@H](C)CC` [Peptide 28] (Ac-W[Nle]RNEFRAI[Nle]RVHGNQLRELANK-OH), the “Average Tm of DocSTm” value is reported as 62.1 ± 0.2 °C. For `CCCC[C@H](NC(=O)[C@H](Cc1c[nH]c2ccccc12)NC(C)=O)C(=O)N[C@@H](CCCNC(=N)N)C(=O)N[C@@H](CC(N)=O)C(=O)N[C@@H](CCC(N)=O)C(=O)N[C@@H](Cc1ccccc1)C(=O)N[C@@H](CCCNC(=N)N)C(=O)N[C@@H](C)C(=O)N[C@H](C(=O)N[C@@H](CCCC)C(=O)N[C@@H](CCCNC(=N)N)C(=O)N[C@H](C(=O)N[C@@H](Cc1c[nH]cn1)C(=O)NCC(=O)N[C@@H](CC(N)=O)C(=O)N[C@@H](CCC(N)=O)C(=O)N[C@@H](CC(C)C)C(=O)N[C@@H](CCCNC(=N)N)C(=O)N[C@@H](CCC(=O)O)C(=O)N[C@@H](CC(C)C)C(=O)N[C@@H](C)C(=O)N[C@@H](CC(N)=O)C(=O)N[C@@H](CCCCN)C(=O)O)C(C)C)[C@@H](C)CC` [Peptide 24] (Ac-W[Nle]RNQFRAI[Nle]RVHGNQLRELANK-OH), the “Average Tm of DocSTm” value was 54.3 ± 1.6 °C. `CCCC[C@H](NC(=O)[C@H](Cc1c[nH]c2ccccc12)NC(C)=O)C(=O)N[C@@H](CCCNC(=N)N)C(=O)N[C@@H](CC(N)=O)C(=O)N[C@@H](CCC(N)=O)C(=O)N[C@@H](Cc1ccccc1)C(=O)N[C@@H](CCCNC(=N)N)C(=O)N[C@@H](C)C(=O)N[C@H](C(=O)N[C@@H](CCCC)C(=O)N[C@@H](CCCNC(=N)N)C(=O)N[C@H](C(=O)N[C@@H](Cc1c[nH]cn1)C(=O)NCC(=O)N[C@@]1(C)CCCC=CCCC[C@@](C)(C(=O)N[C@@H](CC(C)C)C(=O)N[C@@H](C)C(=O)N[C@@H](CC(N)=O)C(=O)N[C@@H](CCCCN)C(=O)O)NC(=O)[C@H](CCCNC(=N)N)NC(=O)[C@H](CC(C)C)NC(=O)[C@H](CCC(N)=O)NC1=O)C(C)C)[C@@H](C)CC` [Peptide 25] (Ac-W[Nle]RNQFRAI[Nle]RVHG[S5]QLR[S5]LANK-OH; staple 15-19) was tested, and the “Average Tm of DocSTm” value was 56.4 ± 3.0 °C.
